In publication PMC6271273, “Chemo-Enzymatic Synthesis of Silybin and 2,3-Dehydrosilybin Dimers” (Molecules, 2014):
Several values for one entry are separate records, joined by “and”; a condition that tells them apart may be missing. Equal entries are not always repeated. Marks after values point to notes of the source that are not given here.

Experiments:
[1] = DPPH radical scavenging assay; type: biochemical; settings: for IC50: 20 µM DPPH, 30 min; for DPPH [% of inhibition]: 33 µM test compound, n = 4, absorbance at 517 nm after 30 min
Method: Antiradical activity was evaluated spectrophotometrically as the ability of the tested substances to reduce the 1,1-diphenyl-2-picrylhydrazyl (DPPH) radical as described previously with minor modifications. Briefly, a solution of the tested substance (10 µL, final concentration 0–540 µM) were mixed with a freshly prepared methanolic DPPH solution (290 µL, final concentration 20 µM) in a microtiter plate well. After 30 min, absorbance at 517 nm was measured, percentages of inhibition were calculated using the negative control and for selected compounds the IC50 values were obtained from the inhibition curves.

rat liver microsomes = assay: Inhibition of microsomal lipid peroxidation induced by tert-butyl hydroperoxide (TBARS); type: biochemical; settings: for IC50: rat liver microsomes, 1 mM tert-butyl hydroperoxide, TBARS
Method: Microsomes were prepared from rat liver homogenate as described previously and resuspended in 50 mM Tris-HCl buffer with 100 mM KCl and 0.1 mM EDTA (pH 7.4). The protein concentration in the stock microsomal suspension was determined using the Bradford method to be typically ca 30 mg protein/mL. This stock suspension was stored at −80 °C and diluted to 0.625 mg protein/mL using PBS before use. 0.4 mL of the diluted microsomal suspension was then mixed with the compounds tested (final concentration 10–200 µM in 0.01 mL DMSO) and incubated for 10 min at 37 °C. tert-Butyl hydroperoxide (0.09 mL in PBS; final concentration 1 mM) was then added and the mixture was incubated at 37 °C for 30 min. The products of lipid peroxidation were determined as thiobarbituric acid reactive substances (TBARS): 0.7 mL of […] were added, the mixture was heated (90 °C; 30 min), cooled, centrifuged (10 min; 10,000 rpm; 4 °C) and the absorbance of the supernatant at 535 nm measured. The activity was calculated as the concentration of the tested compound that inhibited the color reaction with thiobarbiturate (without the tested compound) by 50% (IC50).

[2] = test system: human umbilical vein endothelial cells (HUVEC); assay: Cytotoxicity, MTT test, HUVEC; type: cell-based; settings: 24 h incubation, read-out: IC50 viability (MTT-reducing ability) HUVEC
Method: (§1) All the cells were cultured in a humidified atmosphere with 5% (v/v) CO2 at 37 °C and subcultured before conﬂuence. Human Umbilical Vein Endothelial Cells (HUVEC) were isolated from umbilical cords of healthy non-smoker women (18–35 years) as described previously, cultivated in gelatin-coated flasks in EGM and used in passages 2–6. Primary Normal human Adult epidermal Keratinocytes (NAK) were isolated from normal skin obtained from excessive tissue removed during abdominoplasty or mammoplasty of healthy adult patients as described in [36, 50], cultivated in EpiLife medium with the addition of HKGS. Mouse fibroblasts (BALB/c 3T3 cells) were purchased from the European Collection of Cell Cultures (ECACC, Salisbury, UK) and were grown in DMEM supplemented with heat-inactivated FCS (5%, v/v) and newborn FCS, streptomycin […] and glutamine (4 mM). Hepatocyte carcinoma HepG2 cells (No. 85011430, ECACC) were cultured at 37 °C in DMEM supplemented with 2 mM L-glutamine, 1% non-essential amino acids, 100 U/mL penicillin, […] and 10% fetal bovine serum (Invitrogen, Carlsbad, CA, USA).
(§2) The cells were plated into 96-well cell culture plates and grown to near confluence. The tested compounds were placed in the respective fresh medium in serial dilutions (100 µL/well) and incubated with the cells for 24 h. After incubation, the medium was removed, the cells were washed with PBS, fresh medium containing 1 mg/mL of MTT was added and the plates were incubated for a further 3 h (37 °C). The resulting formazan was dissolved in 50 µL of 1% NH3 in DMSO, absorbance was read at 540 nm and IC50 values were obtained graphically from the dependence of cell viability on the concentration of the tested compound.

[3] = test system: normal human adult epidermal keratinocytes (NAK); assay: Cytotoxicity, MTT test, NAK; type: cell-based; settings: Keratinocyte, 24 h incubation, read-out: IC50 viability (MTT-reducing ability) NAK
Method: as §1, §2

[4] = test system: mouse fibroblasts (BALB/c 3T3); assay: Cytotoxicity, MTT test, BALB/c 3T3; type: cell-based; settings: BALB/c3T3, 24 h incubation, read-out: IC50 viability (MTT-reducing ability) BALB/c 3T3
Method: as §1, §2

HepG2 cells = assay: Cytotoxicity, MTT test, HepG2; type: cell-based; settings: Homo sapiens, 24 h incubation, read-out: IC50 viability (MTT-reducing ability) HepG2
Method: as §1, §2

[5] = Cytotoxicity, MTT test, range over all cells other than NAK; type: cell-based; settings: human (HUVEC, HepG2) and mouse (BALB/c 3T3), all cells used other than NAK (HUVEC, BALB/c 3T3, HepG2), read-out: Cytotoxicity IC50, range over cell types
Method: as §1, §2

[6] = Square wave voltammetry (in situ / ex situ) at pyrolytic graphite electrode; type: physicochemical; settings: for Oxidation potential Ep1 / Oxidation potential Ep2: SWV, vs. Ag/AgCl/3 M KCl, pH 7.4, n = 3; for Oxidation potential Ep1: ascribed to oxidation of C-20 OH; for Oxidation potential Ep2: oxidation of resorcinol moiety (ring A); for Adsorption onto the electrode: ex situ (adsorptive transfer) SWV, open circuit potential
Method: The monomeric flavonolignans and their dimers were analyzed using in situ voltammetry with the working electrode (PGE: pyrolytic graphite electrode) dipped in the supporting electrolyte containing the analytes and/or ex situ voltammetric analysis (adsorptive transfer, AdT technique). For this purpose, the PGE was first dipped into a 5 µL aliquot of the studied sample. After an accumulation period (30 s), the electrode was washed with deionized water and placed in an electrochemical cell containing pure supporting electrolyte. Square-wave voltammetry (SWV) and cyclic voltammetry (CV) were performed at room temperature with a µAutolab III analyzer (EcoChemie, Utrecht, The Netherlands) in a three-electrode setup (Ag/AgCl 3M KCl electrode as a reference and a platinum wire as the auxiliary electrode). SWV parameters: frequency: 200 Hz, from 0 V to +1.5 V, concentration of tested compounds (50 µM), supporting electrolyte: Britton-Robinson buffer, pH 7.4. The flavonolignans analyzed were dissolved in methanol as a stock solution of 1 mg mL^−1 (stored in a fridge in the dark), and diluted with the supporting electrolyte and/or 0.2 M acetate buffer (pH 5) for in situ and/or ex situ voltammetry. Ex situ a.c. voltammetry (out-of-phase) was carried out with a hanging mercury drop electrode (HMDE) according to the previously published paper. In this case, the flavonolignans (50 µM) were adsorbed from 0.2 M acetate buffer (pH 5) for 30 s. For current responses and potentials (Ep), the standard deviations (S.D.) were less than ±3.55% and ±3 mV for all experiments, respectively.

| IC50 [1] [µM] | IC50 (rat liver microsomes) [µM] | Oxidation potential Ep1 [6] [V] | Oxidation potential Ep2 [6] [V] | Activity relative to the parent molecule 1a, microsomal lipid peroxidation (rat liver microsomes; stated jointly for DPPH scavenging and microsomal lipid peroxidation tests) | Structure (SMILES) | DPPH [% of inhibition] [1] | IC50 [2] [µM] | IC50 [3] [µM] | IC50 [4] [µM] | IC50 (HepG2 cells) [µM] | IC50 at 24 h [5] [µM] | Adsorption onto the electrode [6] | DPPH [% of inhibition] ([1]; 33 µM) |
| --- | --- | --- | --- | --- | --- | --- | --- | --- | --- | --- | --- | --- | --- |
| 225 ± 9.4 | 53.7 ± 6.1 | – | – | – | COc1cc([C@H]2Oc3cc([C@H]4Oc5cc(O)cc(O)c5C(=O)[C@@H]4O)ccc3O[C@@H]2CO)ccc1O [Compound 1a, silybin A] | 6.6 ± 1.7 ^a % | 57.8 ± 3.6 | > 200 | 131 ± 8 | 165 ± 8.1 | 60 to 166 | – | – |
| 137 ± 7.5 | 34 ± 4.3 | 0.56 | 0.83 | approximately 1.6 times | COc1cc([C@H]2Oc3cc([C@H]4Oc5cc(O)cc(O)c5C(=O)[C@@H]4O)ccc3O[C@@H]2COC(=O)CCCCCCCCCCC(=O)OC[C@H]2Oc3ccc([C@H]4Oc5cc(O)cc(O)c5C(=O)[C@@H]4O)cc3O[C@@H]2c2ccc(O)c(OC)c2)ccc1O [Compound 3, bis(((2R,3R)-3-(4-Hydroxy-3-methoxyphenyl)-6-((2R,3R)-3,5,7-trihydroxy-4-oxochroman-2-yl)-2,3-dihydrobenzo[b][1,4]dioxin-2-yl)methyl) dodecanedioate] | 7.1 ± 2.8 ^a % | 7.6 ± 1.9 | > 200 | 23.5 ± 5.6 | 51.8 ± 5.9 | 8 to 44 | strictly limited and practically impossible | – |
| 6.43 ± 0.3 | 14.5 ± 0.73 | 0.54 | 0.92 | – | COc1cc(C2Oc3cc(-c4oc5cc(O)cc(O)c5c(=O)c4O)ccc3OC2CO)ccc1O (centres unmarked) [Compound 6, 2,3-Dehydrosilybin] | – | 20.9 ± 4.6 | > 200 | 11.9 ± 3 | 58.4 ± 9 | 12 to 59 | – | 83% and 82.9 ± 0.2 ^b % |
| 29 ± 0.7 | 59.2 ± 5.9 | 0.57 | 0.99 | – | COc1cc(C2Oc3cc(-c4oc5cc(O)cc(O)c5c(=O)c4O)ccc3OC2COC(=O)CCCCCCCCCCC(=O)OCC2Oc3ccc(-c4oc5cc(O)cc(O)c5c(=O)c4O)cc3OC2c2ccc(O)c(OC)c2)ccc1O (centres unmarked) [Compound 7, bis((3-(4-Hydroxy-3-methoxyphenyl)-6-(3,5,7-trihydroxy-4-oxo-4H-chromen-2-yl)-2,3-dihydrobenzo-[b][1,4]dioxin-2-yl)methyl) dodecanedioate] | 33.4 ± 3.1 ^c % | 98.4 ± 10.6 | > 200 | 161 ± 9 | 172 ± 11.6 | 99 to 173 | strictly limited and practically impossible | – |
| – | – | 0.56 | 0.81 | – | COc1cc([C@H]2Oc3cc([C@H]4Oc5cc(OCc6ccc(COc7cc(O)c8c(c7)O[C@H](c7ccc9c(c7)O[C@H](c7ccc(O)c(OC)c7)[C@@H](CO)O9)[C@@H](O)C8=O)cc6)cc(O)c5C(=O)[C@@H]4O)ccc3O[C@@H]2CO)ccc1O [Compound 8, (2R,2'R,3R,3'R)-7,7'-((1,4-Phenylenebis(methylene))bis(oxy))bis(3,5-dihydroxy-2-((2R,3R)-3-(4-hydroxy-3-methoxyphenyl)-2-(hydroxymethyl)-2,3-dihydrobenzo[b][1,4]dioxin-6-yl)chroman-4-one)] | 8.5 ± 3.7 ^a % | – | – | – | – | – | – | – |
| – | – | 0.57 | 0.83 | – | COc1cc([C@@H]2Oc3cc([C@H]4Oc5cc(OCc6ccc(COc7cc(O)c8c(c7)O[C@H](c7ccc9c(c7)O[C@@H](c7ccc(O)c(OC)c7)[C@H](CO)O9)[C@@H](O)C8=O)cc6)cc(O)c5C(=O)[C@@H]4O)ccc3O[C@H]2CO)ccc1O [Compound 9, (2R,2'R,3R,3'R)-7,7'-((1,4-Phenylenebis(methylene))bis(oxy))bis(3,5-dihydroxy-2-((2S,3S)-3-(4-hydroxy-3-methoxyphenyl)-2-(hydroxymethyl)-2,3-dihydrobenzo[b][1,4]dioxin-6-yl)chroman-4-one)] | 8.9 ± 4.0 ^a % | – | – | – | – | – | – | – |
| – | – | 0.56 | 0.80 | – | COc1cc(C2Oc3cc([C@H]4Oc5cc(OCc6ccc(COc7cc(O)c8c(c7)O[C@H](c7ccc9c(c7)OC(c7ccc(O)c(OC)c7)C(CO)O9)[C@@H](O)C8=O)cc6)cc(O)c5C(=O)[C@@H]4O)ccc3OC2CO)ccc1O (stereo partly drawn) [Compound 10, (2R,2'R,3R,3'R)-7,7'-((1,4-Phenylenebis(methylene))bis(oxy))bis(3,5-dihydroxy-2-(3-(4-hydroxy-3-methoxyphenyl)-2-(hydroxymethyl)-2,3-dihydrobenzo[b][1,4]dioxin-6-yl)chroman-4-one)] | 8.1 ± 3.4 ^a % | – | – | – | – | – | – | – |
| – | – | 0.52 | 0.87 | – | COc1cc(C2Oc3cc([C@H]4Oc5cc(OCc6cccc(COc7cc(O)c8c(c7)O[C@H](c7ccc9c(c7)OC(c7ccc(O)c(OC)c7)C(CO)O9)[C@@H](O)C8=O)c6)cc(O)c5C(=O)[C@@H]4O)ccc3OC2CO)ccc1O (stereo partly drawn) [Compound 11, (2R,2'R,3R,3'R)-7,7'-((1,3-Phenylenebis(methylene))bis(oxy))bis(3,5-dihydroxy-2-(3-(4-hydroxy-3-methoxyphenyl)-2-(hydroxymethyl)-2,3-dihydrobenzo[b][1,4]dioxin-6-yl)chroman-4-one)] | 10.7 ± 3.1 ^a % | – | – | – | – | – | – | – |
